Target: Ni^2+ form of Peptide Deformylase (S. Aureus) (Staphylococcus aureus, UniProt P68826)
Assay: Deformylation of For-Met-Ala-Ser-OH by Ni-PDF monitored by 1H NMR over incubation times
Format: biochemical
Conditions: for interaction constant α between I1 and I2: 0.4 mM 8-hydroxyquinoline (I1) + 0.15 mM N-Nitro-N′-(N-phenylamino)guanidine (I2); for interaction constant α between I1 and I2 / Ki: 2.5 mM substrate, 1 uM enzyme, assuming a KM of 2.5 mM, FIG. 4; for Ki: from slopes of formate buildup, read-out: KEI (constant of inhibition)
Protocol: FIG. 1 depicts the deformylation of For-Met-Ala-Ser-OH catalyzed by the Ni^2+ form of Peptide Deformylase (S. Aureus) (herein also referred to as “PDF”) over a range of incubation times, as monitored by 1H nuclear magnetic resonance spectroscopy.
FIG. 4 depicts the deformylation of For-Met-Ala-Ser-OH catalyzed by the Ni^2+ form of Peptide Deformylase (S.Aureus) over a range of incubation times, as monitored by 1H nuclear magnetic resonance spectroscopy of the buildup of the formate (For) moiety. Four slopes are illustrated in this figure, the first one (∘) is a “control” experiment using 2.5 mM of substrate (For-Met-Ala-Ser-OH) and 1 uM of enzyme. […] The third slope (∇) contains 0.15 mM of N-Nitro-N′-(N-phenylamino)guanidine (I2) in the presence of 2.5 mM of substrate and 1 uM of enzyme. Finally the fourth slope (⋄) contains both I1 and I2 at 0.4 mM and 0.15 mM, respectively, in the presence of 2.5 mM of substrate and 1 uM of enzyme. Calculating the four slopes and using the steady-state rate equations for this system, it is straightforward to calculate the KEI1, KEI2, and α value.

Chain of Ni^2+ form of Peptide Deformylase (S. Aureus) (P68826 whole entry): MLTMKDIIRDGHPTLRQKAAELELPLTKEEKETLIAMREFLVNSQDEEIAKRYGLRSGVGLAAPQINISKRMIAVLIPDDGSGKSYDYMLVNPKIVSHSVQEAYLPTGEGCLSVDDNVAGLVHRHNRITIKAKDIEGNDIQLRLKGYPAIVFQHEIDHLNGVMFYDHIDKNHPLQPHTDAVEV

Oc1cccc2cccnc12 [8-hydroxyquinoline]
interaction constant α between I1 and I2: 0.72
Ki: 335 µM
deformylation of For-Met-Ala-Ser-OH (rate at which product resonance peak increases) (8-hydroxyquinoline added to substrate + Ni-PDF mixture, FIG. 1): slightly inhibited

N=C(NNc1ccccc1)N[N+](=O)[O-] [N-Nitro-N′-(N-phenylamino)guanidine]
interaction constant α between I1 and I2: 0.72
Ki: 151 µM

Reference: patent US20070248997A1, “METHOD OF USING ONE-D[…] MULTI-D[…] MAGNETIC RESONANCE TO IDENTIFY COMPOUNDS THAT INTERACT WITH TARGET BIOMOLECULES” (Smithkline Beecham Corporation, priority 1999, published 2007)
